Assay results as given in paper PMC6066574, “Resistance to the Plant Defensin NaD1 Features Modifications to the Cell Wall and Osmo-Regulation Pathways of Yeast” (Frontiers in Microbiology, 2018).
Values after ≈ are worked out from the molar mass of the structure shown. Read-outs that look alike come from different tables or passages of the source.

Experiments:
[1] = test system: S. cerevisiae BY4741 wild-type; assay: Antifungal growth assay, wild-type strain; type: cell-based; conditions: Saccharomyces cerevisiae
Experimental: (§1) Antifungal assays were performed as described in [Hayes et al. (2013)]. Briefly, cultures were grown overnight (30°C, 250 rpm) in 5 mL YPD and diluted to an OD600 of 0.01 in ½ PDB. Antifungal molecules were prepared at 10x the assay concentration, and 10 μL was mixed with 90 μL of diluted yeast culture before incubation for 24 h at 30°C. The final OD600 was measured using a SpectraMAX M5e plate reader (Molecular Devices).

S. cerevisiae BY4741 = assay: Serial sub-culturing in the presence of antifungal to develop resistance; type: cell-based, Saccharomyces cerevisiae; conditions: caspofungin-resistant lines
Experimental: (§2) S. cerevisiae BY4741 was grown overnight at 30°C with agitation in 5 mL of YPD. The overnight culture was then diluted to an OD 600 nm of 0.01 in 50% strength PDB medium (½ PDB) before addition of antifungal molecules. Cultures were initially grown with the antifungal molecules at 0.5x the minimum inhibitory concentration (MIC) or 1x MIC alongside a negative control lacking antifungals. Three independent lines for the test and controls were grown at the same time. The cultures were incubated overnight at 30°C with agitation. […] Sub-culturing was stopped once growth occurred at 32 times the original MIC.

[2] = test system: no-treatment control lines of S. cerevisiae; assay: Antifungal growth assay, no-treatment control lines (stated together); type: cell-based; conditions: Saccharomyces cerevisiae, read-out: MIC against no treatment control
Experimental: as §2, §1

[3] = test system: S. cerevisiae NaD1-resistant strain B; assay: Antifungal growth assay, NaD1-R B; type: cell-based; conditions: Saccharomyces cerevisiae, Table 1, ½ PDB, 24 h at 30°C, OD600, read-out: Caspofungin MIC
Experimental: as §2
(§3) Cultures that were more tolerant to the antifungal molecule were streaked out for single colonies on non-selective YPD agar. Three colonies were picked from each line, and their resistance was re-tested. The colony with the highest resistance to the antifungal was retained for further experimentation. The MIC of pure strains isolated from each culture was broadly equivalent (Supplementary Figure 1).
(§4) Antifungal assays were performed as described in [Hayes et al. (2013)]. Briefly, cultures were grown overnight (30°C, 250 rpm) in 5 mL YPD and diluted to an OD600 of 0.01 in ½ PDB. […] The final OD600 was measured using a SpectraMAX M5e plate reader (Molecular Devices).

[4] = test system: NaD1-resistant strains of S. cerevisiae; assay: Antifungal growth assay, NaD1-resistant strains (stated together); type: cell-based, Saccharomyces cerevisiae; conditions: Figure 2B; result in words
Experimental: as §2, §3, §4

[5] = test system: S. cerevisiae NaD1-resistant strain C; assay: Antifungal growth assay, NaD1-R C; type: cell-based; conditions: Saccharomyces cerevisiae, Table 1, ½ PDB, 24 h at 30°C, OD600, read-out: Caspofungin MIC
Experimental: as §2, §3, §4

[6] = test system: S. cerevisiae Caspofungin-R A; assay: Antifungal growth assay, Caspofungin-R A; type: cell-based; conditions: Saccharomyces cerevisiae, Table 1, ½ PDB, 24 h at 30°C, OD600
Experimental: as §2, §3, §4

[7] = test system: S. cerevisiae Caspofungin-R B; assay: Antifungal growth assay, Caspofungin-R B; type: cell-based; conditions: Saccharomyces cerevisiae, Table 1, ½ PDB, 24 h at 30°C, OD600
Experimental: as §2, §3, §4

[8] = test system: caspofungin-resistant isolates of S. cerevisiae; assay: Antifungal growth assay, caspofungin-resistant isolates (stated together); type: cell-based, Saccharomyces cerevisiae
Experimental: as §2, §3, §4

[9] = test system: S. cerevisiae Caspofungin-R C; assay: Antifungal growth assay, Caspofungin-R C; type: cell-based; conditions: Saccharomyces cerevisiae, Table 1, ½ PDB, 24 h at 30°C, OD600
Experimental: as §2, §3, §4

[10] = test system: S. cerevisiae NaD1-resistant strain A; assay: Antifungal growth assay, NaD1-R A; type: cell-based; conditions: Saccharomyces cerevisiae, Table 1, ½ PDB, 24 h at 30°C, OD600, read-out: Caspofungin MIC
Experimental: as §2, §3, §4

[11] = test system: NaD1-resistant strains of S. cerevisiae compared to wild type BY4741; assay: Stress spot assay on YPD agar; type: cell-based, Saccharomyces cerevisiae; conditions: for growth of NaD1-resistant strains relative to wild-type: result in words; for concentration that inhibited NaD1-resistant strains but not the wild type: YPD agar spot assay, Figure 6; for concentration at which sensitivity of the NaD1-resistant strains was observed: YPD agar, fivefold dilution spots, overnight 30°C, Supplementary Figures 3 and 4
Experimental: YPD agar medium (25 mL) was amended to a final concentration of hydrogen peroxide (0.625 mM, 1.25 mM, 2.5 mM, 5 mM), CFW (1 μg/mL, 2.5 μg/mL, 5 μg/mL, 10 μg/mL), NaCl (100 mM, 200 mM, 300 mM), or SDS (12.5 μg/mL, 25 μg/mL, 50 μg/mL, 100 μg/mL) just before each plate was poured. Yeast cultures were grown overnight in 5 mL of YPD before dilution to an OD 600 nm of 0.1. A fivefold dilution series of each culture was spotted onto the plate (4 μL per spot) and incubated overnight at 30°C before being photographed.

**Q.** What does the source list for CC[C@H](C)C[C@H](C)CCCCCCCCC(=O)N[C@H]1C[C@@H](O)[C@@H](NCCN)NC(=O)[C@@H]2[C@@H](O)CCN2C(=O)[C@H]([C@H](O)CCN)NC(=O)[C@H]([C@H](O)[C@@H](O)c2ccc(O)cc2)NC(=O)[C@@H]2C[C@@H](O)CN2C(=O)[C@H]([C@@H](C)O)NC1=O [caspofungin]?
**A.** MIC ([1]; Table 1, Wild-type, ½ PDB, 24 h at 30°C, OD600, read-out: Caspofungin MIC): 0.02 µM (≈ 0.0219 µg/mL); MIC ([1]; initial MIC at the start of sub-culturing, read-out: initial MIC): 0.01 µM (≈ 0.0109 µg/mL); rounds of sub-culture to achieve growth at concentrations 32-fold higher than the initial MIC (S. cerevisiae BY4741): 15 rounds; MIC [2]: 0.02 µM (≈ 0.0219 µg/mL); MIC [3]: 0.025 µM (≈ 0.0273 µg/mL); sensitivity of NaD1-resistant strains compared with wild type [4]: as sensitive to caspofungin as the wild-type strain; MIC [5]: 0.025 µM (≈ 0.0273 µg/mL); MIC [6]: 0.5 µM (≈ 0.547 µg/mL); MIC [7]: 0.5 µM (≈ 0.547 µg/mL); MIC ([8]; Saccharomyces cerevisiae, read-out: MIC against caspofungin-resistant isolates): 0.5 µM (≈ 0.547 µg/mL); fold more resistant than no treatment control / wild type (MIC ratio) ([8]; caspofungin-resistant isolates versus no treatment control / wild type): 25 fold; MIC [9]: 0.5 µM (≈ 0.547 µg/mL); MIC [10]: 0.025 µM (≈ 0.0273 µg/mL)

**Q.** OO [hydrogen peroxide] was tested. Which “growth of NaD1-resistant strains relative to wild-type” value ([11]; range of hydrogen peroxide concentrations in YPD agar) did it give?
**A.** grew the same as the wild-type strain

**Q.** Which results are given for CCCCCCCCCCCCOS(=O)(=O)[O-].[Na+] [SDS]?
**A.** concentration that inhibited NaD1-resistant strains but not the wild type [11]: 100 µg/mL; concentration at which sensitivity of the NaD1-resistant strains was observed [11]: 12.5 µg/mL

**Q.** How did the “growth of NaD1-resistant strains relative to wild-type” value ([11]; 200 mM NaCl in YPD agar) turn out when [Cl-].[Na+] [NaCl] was run?
**A.** grew better than wild-type

**Q.** What does the source list for O=S(=O)(O)c1cc(Nc2nc(Nc3ccccc3)nc(N(CCO)CCO)n2)ccc1/C=C/c1ccc(Nc2nc(Nc3ccccc3)nc(N(CCO)CCO)n2)cc1S(=O)(=O)O [CFW, calcofluor white]?
**A.** concentration that inhibited NaD1-resistant strains but not the wild type [11]: 10 µg/mL; concentration at which sensitivity of the NaD1-resistant strains was observed [11]: 1 µg/mL
